From patent publication US20250208137A1, “COMPOUNDS FOR THE DETECTION AND INHIBITION OF COAGULATION PROTEASES” (Politechnika Wroclawska, priority 2022, published 2025) come the findings set out here.

What all share (assay type): biochemical
One test addresses fXIa (Homo sapiens, UniProt P03951). The test can be described thus: Inhibition kinetics (kobs/I) under pseudo first-order conditions, fXIa. The settings on record: 10 nM fXIa, substrate 100 μM SMX1, pH 7.4, 37° C. On the procedure:
(§1) The Kobs/l parameters towards APC, fIIa, fXa, and fXIa were measured under pseudo first-order conditions (Table 1). The assay buffer contained 20 mM Tris-base, 150 mM NaCl, 5 mM CaCl2), pH 7.4. Each ABP or inhibitor was serially diluted until the seventh well to obtain the concentrations ranging from 308 nM to 100 µM, depending on the ABP/inhibitor used. The assay conditions were as follows: 20 μL of selected substrate (154 μM SMA5 for APC, 100 μM SMA4 for fIIa, 50 μM SMII18 for fXa, and 100 μM SMX1 for fXIa) was added into the wells containing 20 μL of seven different ABP/inhibitor concentrations. Next, 60 μL of APC, fIIa, fXa, or fXIa (at the concentration of 10 nM) preincubated for 15 min at 37° C. was added, and the fluorescence increase over time was measured (λex=355 nm, λem=460 nm) for 30 min. The Kobs/l values were calculated using GraphPad Prism and Microsoft Excel software as described previously.

Another test concerns the target fXa (Homo sapiens, UniProt P00742). In words: Inhibition kinetics (kobs/I) under pseudo first-order conditions, fXa. The settings on record: 10 nM fXa, substrate 50 μM SMII18, pH 7.4, 37° C. On the procedure:
as §1

Test [1] concerns the target T1, APC (Homo sapiens, UniProt P04070). In words: Screen of APC tetrapeptide fluorogenic substrates. As to conditions: for activity and selectivity for APC in the substrate screen: out of substrates SMA1-SMA26. Here is the method:
(§2) To minimize potential cross reactivity, a detailed kinetic analysis of the four APC-selective substrates was performed against the other proteases.

Test [2] concerns the target T1, APC. The test can be described thus: Kinetic parameters (kcat/KM) of fluorogenic substrates, APC. The settings on record: APC versus other coagulation factors. Here is the method:
The Kcat/KM parameters towards APC, thrombin and fXa were measured using the procedure described in Modrzycka et al. Chemical Science, 2022, 13, 6813-6829.

For test [3], the system named is other coagulation factors. In words: Substrate hydrolysis by other coagulation factors. Here is the method:
as §2

The next test has as its target fIIa (Homo sapiens, UniProt P00734). The test can be described thus: Inhibition kinetics (kobs/I) under pseudo first-order conditions, fIIa. The settings on record: 10 nM fIIa, substrate 100 μM SMA4, pH 7.4, 37° C. Here is the method:
as §1

In test [4] the target is T1, APC. In words: Inhibition kinetics (kobs/I) under pseudo first-order conditions, APC. The settings on record: 10 nM APC, substrate 154 μM SMA5, pH 7.4, 37° C. On the procedure:
as §1

Starred links: 1 amine or outer side, 2 acyl side, 3 side chain; linkers in the order of their positions; H or OH if unused. Non-standard residues stand in square brackets, D forms with d. Primed or numbered codes have the meaning given here. *: point of attachment. Tyr(2,6Cl2-Z) = 2,6-dichlorobenzyl-L-tyrosine, O=C([C@H](Cc1ccc(OCc2c(Cl)cccc2Cl)cc1)N[*:1])[*:2]; Glu(Bzl) = L-glutamic acid benzyl ester, O=C(CC[C@H](N[*:1])C(=O)[*:2])OCc1ccccc1; diphenyl phosphonate = C-terminal diphenyl phosphonate (Arg^P(OPh)2); BODIPY(FL) = CC1=CC(C)=[N+]2C1=Cc1ccc(CCC(=O)*)n1[B-]2(F)F; 1Nal = N[C@@H](Cc1cccc2ccccc12)C(=O)O; ACC = NC(=O)Cc1cc(=O)oc2cc(N*)ccc12; Igl = N[C@H](C(=O)O)C1Cc2ccccc2C1; hArg = N=C(N)NCCCC[C@H](N)C(=O)O; Agp = N=C(N)NC[C@H](N)C(=O)O; PEG4′ = PEG linker, 4 units; Nle = CCCC[C@H](N)C(=O)O; Dab = NCC[C@H](N)C(=O)O; Cbz = O=C(OCc1ccccc1)*; Cy3 = Cy3 fluorophore; Ahx = NCCCCCC(=O)O

T1 sequence (P04070 212-461 limits assumed): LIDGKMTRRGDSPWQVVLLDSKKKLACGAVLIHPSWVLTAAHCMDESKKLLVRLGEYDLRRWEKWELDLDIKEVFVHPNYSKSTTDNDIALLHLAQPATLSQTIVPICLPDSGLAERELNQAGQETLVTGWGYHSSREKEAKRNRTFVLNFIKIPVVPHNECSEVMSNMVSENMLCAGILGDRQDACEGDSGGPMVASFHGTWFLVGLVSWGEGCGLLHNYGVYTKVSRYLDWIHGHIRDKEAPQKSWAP
T1 sequence (P04070 43-197 partner limits assumed): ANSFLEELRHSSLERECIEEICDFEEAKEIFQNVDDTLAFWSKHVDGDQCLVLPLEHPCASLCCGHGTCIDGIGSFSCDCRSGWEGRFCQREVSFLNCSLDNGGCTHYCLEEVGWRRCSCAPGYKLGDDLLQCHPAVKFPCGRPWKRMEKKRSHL
fXIa, sequence (P03951 388-625 limits assumed): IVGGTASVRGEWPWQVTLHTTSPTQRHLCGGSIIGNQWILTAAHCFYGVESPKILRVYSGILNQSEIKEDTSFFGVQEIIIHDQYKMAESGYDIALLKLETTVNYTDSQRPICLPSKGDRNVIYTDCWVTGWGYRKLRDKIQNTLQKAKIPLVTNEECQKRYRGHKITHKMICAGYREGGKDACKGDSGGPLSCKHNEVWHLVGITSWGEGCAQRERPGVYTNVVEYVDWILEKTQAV
fXIa, sequence (P03951 19-387 partner limits assumed): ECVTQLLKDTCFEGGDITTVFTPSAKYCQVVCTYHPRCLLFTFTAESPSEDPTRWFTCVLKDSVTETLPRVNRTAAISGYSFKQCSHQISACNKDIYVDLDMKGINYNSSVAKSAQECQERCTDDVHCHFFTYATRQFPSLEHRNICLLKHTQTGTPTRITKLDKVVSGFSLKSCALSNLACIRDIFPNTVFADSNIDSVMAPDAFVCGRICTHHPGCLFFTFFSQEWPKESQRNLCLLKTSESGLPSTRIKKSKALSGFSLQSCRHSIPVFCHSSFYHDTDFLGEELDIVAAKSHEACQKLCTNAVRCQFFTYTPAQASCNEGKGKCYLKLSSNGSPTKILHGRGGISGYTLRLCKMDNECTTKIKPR
fXa, sequence (P00742 235-488 limits assumed): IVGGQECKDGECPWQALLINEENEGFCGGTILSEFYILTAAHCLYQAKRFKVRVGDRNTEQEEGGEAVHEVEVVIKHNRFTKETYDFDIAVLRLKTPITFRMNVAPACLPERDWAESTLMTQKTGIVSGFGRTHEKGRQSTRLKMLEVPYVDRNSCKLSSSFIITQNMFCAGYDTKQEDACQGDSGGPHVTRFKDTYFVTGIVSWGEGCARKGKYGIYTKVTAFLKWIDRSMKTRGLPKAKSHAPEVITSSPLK
fXa, sequence (P00742 41-179 partner limits assumed): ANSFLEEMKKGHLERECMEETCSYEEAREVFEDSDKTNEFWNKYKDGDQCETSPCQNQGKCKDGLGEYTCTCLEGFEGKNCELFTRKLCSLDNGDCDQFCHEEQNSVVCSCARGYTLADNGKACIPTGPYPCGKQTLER

With “Bodipy-PEG(4)-Tyr(2,6Cl2-Z)-Nle-Glu(Bzl)-Arg^P(OPh)2 ({BODIPY(FL)-PEG4′}-[Tyr(2,6Cl2-Z)][Nle][Glu(Bzl)]R-{diphenyl phosphonate}) [P-SMXI52]”, the “kobs/I fXIa” value with fXIa was 3,120 ± 100 M^−1s^−1.

Take “Cy3-6-Ahx-DPro-hArg-1-Nal-Arg^P(OPh)2 ({Cy3-Ahx}-[dP][hArg][1Nal]R-{diphenyl phosphonate}) [P-SMX152]”: the “kobs/I fXa” value with fXa was 1,800 ± 100 M^−1s^−1.

“Ac-Lys-Agp-Igl-Arg-ACC (Ac-K[Agp][Igl]R-{ACC}; SMILES CC(=O)N[C@@H](CCCCN)C(=O)N[C@@H](CNC(=N)N)C(=O)N[C@H](C(=O)N[C@@H](CCCNC(=N)N)C(=O)Nc1ccc2c(CC(N)=O)cc(=O)oc2c1)C1Cc2ccccc2C1) [SMA 6, fluorogenic substrate for APC]”: the “activity and selectivity for APC in the substrate screen” value (“activity and selectivity for APC” below) in the test with APC [1] is “showed the most activity and selectivity for APC”.

As for Ac-K[Dab](Cbz)KR-{ACC} [SMA 17], the Kcat/KM selectivity ratio result at APC [2] is reported as “very high”. Further, the “activity and selectivity for APC” value at APC [1] was “showed the most activity and selectivity for APC”. In addition, the “hydrolysis when tested with other coagulation factors” value in test [3] is reported as “almost nondetectable”.

On to “Ac-Tyr(2,6Cl2-Z)-Nle-Glu(Bzl)-Arg^P(OPh)2 (Ac-[Tyr(2,6Cl2-Z)][Nle][Glu(Bzl)]R-{diphenyl phosphonate}) [I-SMXI5]”, for which the “kobs/I fXIa” value with fXIa is 54,700 ± 2,800 M^−1s^−1.

Regarding “Ac-DPro-hArg-1-Nal-Arg^P(OPh)2 (Ac-[dP][hArg][1Nal]R-{diphenyl phosphonate}) [I-SMX15]”, in the test with fXa, the “kobs/I fXa” value is given as 1,200 ± 100 M^−1s^−1.

Regarding “Ac-hCha-Cys(MeBzl)-Pip-Arg^P(OPh)2 [I-SMII22]”, the “kobs/I fIIa” value on fIIa is 209,000 ± 13,800 M^−1s^−1.

With “Cy7-6-Ahx-hCha-Cys(MeBzl)-Pip-Arg^P(OPh)2 [P-SMII222]”, at fIIa, the “kobs/I fIIa” value was 3,500 ± 300 M^−1s^−1.

As to Ac-K[Dab](Cbz)[Igl]R-{ACC} [SMA 5], the “activity and selectivity for APC” value at APC [1] is “showed the most activity and selectivity for APC”. The “cleavage efficiency compared to the best natural substrate (SMA54)” value on APC [1] (relative to SMA54) is recorded as “approximately 50 fold”.

In the case of Ac-Lys-Dab(Z)-Lys-Arg^P(OPh)2 [I-SMA17], the “kobs/I APC” value at APC [4] is on record as 1,980 ± 20 M^−1s^−1.

Regarding “Cy5-6-Ahx-Lys-Dab(Z)-Lys-Arg^P(OPh)2 [P-SMA172]”, the “kobs/I APC” value at APC [4] was 2,250 ± 170 M^−1s^−1.
